4 molecules from US20220117911A1, “METHODS AND COMPOSITIONS FOR MODULATING BLOOD-BRAIN BARRIER” (INSERM (institut National de la Santé et de la Recherche …, priority 2019, published 2022) can be followed below.

The structures appear in SMILES notation. Values joined by “and” are separate entries in the source; they are usually repeats but may differ in a detail not shown here. Equal values may be shown once. Read-outs that look alike come from different tables or passages of the source.

Data set [1] deals with hCMEC/D3 cells. In words: ATP CellTiter-Glo luminescent cell viability assay in hCMEC/D3 cells. It counts as cell-based, human. The protocol:
FIG. 4: Pharmacological and genetic inhibition of TRPV2 reverse CBD-induced cell death of hCMEC/D3 cells. […] Cell viability was measured by ATP CellTiter-Glo luminescent cell viability assay. […] Cell viability was measured by ATP CellTiter-Glo luminescent cell viability assay. […] (D) Effect of silencing TRPV2 in CBD-induced cell cytotoxicity. […] Data are expressed as mean±SEM.
To further validate the involvement of TRPV2 in CBD-induced cell death of hCMEC/D3 cells, pharmacological and genetic inhibition strategies were used. The number of viable cells was evaluated by quantitating total ATP in cells treated by CBD. […] This further indicates the role of TRPV2 at least partly in the CBD-induced cell death.

Data set [2] deals with hCMEC/D3 cells. Nature of the data set: Tubulogenesis, 3D culture of hCMEC/D3 cells in Matrigel. It counts as cell-based, human. The following applies: for increase of closing tube number vs control group: 3 μM CBD. The protocol: 3D culture of hCMEC/D3 human BBB endothelial cells was performed using Matrigel (Corning). Matrigel, stored at 4° C. at least 24 h before the assay, was added to a 48-well plate (150 μL/well), and then the plate was incubated at 37° C. for 1 h to allow Matrigel polymerization. […] 500 μL/well fresh complete medium containing cells were distributed in the 48-well plate. After 2 h, 7 h and 24 h incubation, images of the wells in the plate were taken. […] Assays were performed 3 times in triplicate and tubule-like structure lumen count was realized with Image J software.

For a further data set, the target named is T1, TRPV2 (Homo sapiens, UniProt Q9Y5S1).
T1 construct: endogenous in cells; host or cells: hCMEC/D3 (human cerebral microvessel endothelial cell line)
T1 sequence (Q9Y5S1 1-764): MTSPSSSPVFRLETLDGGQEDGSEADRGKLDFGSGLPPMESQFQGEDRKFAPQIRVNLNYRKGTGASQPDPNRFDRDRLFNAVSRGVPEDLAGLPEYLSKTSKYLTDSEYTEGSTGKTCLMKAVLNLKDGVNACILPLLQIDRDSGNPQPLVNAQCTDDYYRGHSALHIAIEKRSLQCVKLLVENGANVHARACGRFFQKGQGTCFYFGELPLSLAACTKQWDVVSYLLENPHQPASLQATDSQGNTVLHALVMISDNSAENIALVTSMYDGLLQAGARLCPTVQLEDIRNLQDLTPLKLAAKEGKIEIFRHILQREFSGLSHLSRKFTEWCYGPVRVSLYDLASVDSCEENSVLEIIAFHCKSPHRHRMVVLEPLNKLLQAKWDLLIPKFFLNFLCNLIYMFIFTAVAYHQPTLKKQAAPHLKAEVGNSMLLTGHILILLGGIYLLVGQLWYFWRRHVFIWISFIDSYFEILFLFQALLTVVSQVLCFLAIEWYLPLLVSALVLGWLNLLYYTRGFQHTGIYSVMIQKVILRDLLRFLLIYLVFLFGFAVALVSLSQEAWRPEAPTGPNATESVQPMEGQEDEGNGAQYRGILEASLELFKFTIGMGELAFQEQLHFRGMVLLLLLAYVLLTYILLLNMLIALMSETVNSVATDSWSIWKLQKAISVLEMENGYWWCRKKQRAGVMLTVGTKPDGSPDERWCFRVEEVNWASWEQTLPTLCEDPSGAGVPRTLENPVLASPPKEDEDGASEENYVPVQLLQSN
Nature of the data set: Intracellular Ca2+ signal measurements (Fluo-4-AM) in hCMEC/D3 cells. It counts as cell-based. The following applies: for effect on heat-induced [Ca2+]i signals: heat stimulation. The protocol:
Fluorescence measurement of intracellular Ca2+ ([Ca2+]i) concentration was performed in accordance with our optimized protocol as below: hCMEC/D3 cells grown at 100% confluence in 24-well plates were loaded with 2 μM of fluorescent marker, Fluo-4-AM (λex=496 nm, λem=516 nm, F14201, Thermo Fisher Scientific) for 45 min at 37° C. in a loading Hank's buffer (500 μL/well). The cells were washed and replaced with 500 μL/well buffer. After additional 10 min of incubation at 37° C., the 24-well plates were placed into a Victor™ X2 fluorescent heated microplate reader (PerkinElmer, France). When applying antagonists, cells were pre-treated with the compound for 5 min before to start fluorescent signals recording. Data are expressed as F1/F0, where F0 is the average fluorescence of the control group (no agent or no heat stimulation application) and F1 is the actual fluorescence at the corresponding time for the treated group. To visualize clearly and directly the effect of the chemical agonist and antagonist on [Ca2+]i change, hCMEC/D3 cells were seeded in a 8-well ibidi (1.5 polymer coverslip, CliniSciences). Then, the μ-Slide containing 250 μL/well normal buffer was placed on the platform of a ZEISS 515 […] confocal microscope (Carl Zeiss), and fluo-4-AM loaded cells were photographed using a time-lapse mode every 60 s during 20 min in a humidified 5% CO2 atmosphere at 37° C. Images of hCMEC/D3 were analysed in Fiji app running Image J software.
(§1) Data are expressed as mean value±SEM. Statistical analysis was performed using ANOVA with Dunnett a posteriori test to compare different groups with the control. P value<0.05 was considered statistically significant. […] To calculate IC50 of antagonists (RR and TNL), the concentration-response data were fitted to a logistic function as follows: Y=100/(1+10(log IC50−X)×HillSlope) where Y is the normalized response from 100% down to 0%, X is the decimal log of concentration, HillSlope is the slope. Data fitting was all performed in GraphPad Prism 5.01 software.

Data set [3] has as its system hCMEC/D3 cells. In words: MTT cell viability assay in hCMEC/D3 cells. The following applies: for CBD-induced proliferation level (MTT, CTL=100%): 3 μM CBD. It counts as cell-based, human.
Excerpt: (§2) To study the effects of TRPV2 agonists and antagonists and silencing TRPV2 on cell viability, the 3-(4,5-dimethyl-2-thiazolyl)-2,5-diphenyl-2-H-tetrazolium bromide assay (MTT, Sigma-Aldrich) evaluating cell mitochondrial activity and Trypan blue exclusion assay evaluating living cells were applied. Cells were firstly treated under three conditions mentioned above (Control, negative siRNA, and TRPV2 siRNA) in a 6-well plate. After transfection, cells were re-distributed in a new plate with the same cell number and the same medium in each well. Cell viability were analysed at 0, 24 h, 48 h, 72 h after re-distribution. For MTT assay, cells were re-distributed in 96-well plates at a density of 1×10^4 cells/well, 6 wells per group, one plate four each time. For Trypan blue exclusion assay, cells were re-distributed in 24-well plates at a density of 5×10^4 cells/well. The number of living cells (not stained by Trypan blue) in each well was counted in a TC20™ Automated Cell Counter (Bio-Rad) at each time point, with 3 wells per group.
(§3) After 24 h treatment, the wells were replaced with 100 μL/well fresh complete medium, and 20 μL MTT solution (diluted in PBS buffer, 5 mg·mL-1) was added to each well. And, the plates were kept at 37° C. for an additional 4 h. Then the medium was removed and replaced with 100 μL DMSO per well, in order to dissolve the formazan. The plates were read using a Victor™ X2 microplate reader at 490 nm (PerkinElmer).
as §1

A short description of data set [4]: MTT cell viability assay in hCMEC/D3 cells. It counts as cell-based, human. The following applies: human, read-out: decrease of cell viability (MTT).
Excerpt: as §2, §3, §1
(In general: Tetrazolium dyes change colour on reduction, which living cells bring about.)

Data set [5] relates to hCMEC/D3 cells. In words: Trypan blue exclusion assay (number of viable cells) in hCMEC/D3 cells. It counts as cell-based, human.
Excerpt: as §2

Data set [6] deals with hCMEC/D3 cells. In words: Wound healing migration assay in hCMEC/D3 cells. It counts as cell-based, human. Conditions: for effect on cell migration vs control group: 3 μM CBD. Here is the method:
Cell migration was determined with wound healing assay in hCMEC/D3 as reported previously20. Briefly, a standard wound was created by scratching the cell monolayer of hCMEC/D3 cells with a sterile 200 μL plastic pipette tip and line makers were made at the bottom of plates to indicate the wound edges. After removing cell fragments, the cells were incubated at 37° C. with medium containing 5% FBS. In order to minimize avoid the effect of cell proliferation on would healing assay, the medium was absent of bFGF. The areas of the wound and wound repair activity were photographed by phase contrast microscope (Olympus, Japan) at 0, 4, 8, 24 h. […] After 3 days, cells were prepared for wound healing assay with 100% confluence. […] To study the effects of silencing TRPV2 channel on cell proliferation, the cells were firstly treated under three conditions mentioned above (Control, negative siRNA, and TRPV2 siRNA) in a 6-wells plate. After transfection, the cells were re-distributed in 12-well plate at a density of 5×10^5 cells/well in 750 μL complete culture medium. When cells were 100% confluent, the wound healing assay was started following the above-mentioned protocol. Assays were performed 3 times in triplicate.

The test system of a further data set is hPBMEC monolayers. Nature of the data set: TEER of in vitro human BBB model using hPBMECs on Transwell. It counts as cell-based. The following applies: 50 μM TNL co-treatment with 1 μM CBD.

Excerpt for hPBMEC monolayers: Human Primary Brain Microvascular Endothelial Cells (hPBMECs). Brain capillary endothelial cells were isolated from surgical resections of patients with brain tumors. […] In brief, brain capillaries were isolated using soft digestion of patient brain peritumoral tissues and then seeded. Brain primary microvascular endothelial cells were shortly amplified and seeded on Transwell® (Corning) with microporous membranes (pore size: 0.4 μm) in monoculture or in co-culture with the same patient's fresh primary human cultured astrocytes. Cells were cultured in EBM-2 medium (Lonza, Basel, Switzerland) supplemented with 20% serum and growth factors (Sigma).
After 24 h co-culture, CBD (1 μM) or the same proportion of vehicle was added into the cell inserts. To study the involvement of TRPV2 in CBD-induced effect, cells were pre-treated with 50 μM TNL for 5 min before adding CBD. The TEER values expressed in Ω·cm2 were recorded after 1, 2, 4, 10, 24, 31, 48, 72, 96, 120 h of CBD treatment.

As usually defined, the EC50 is the concentration giving half of the maximal effect. Regarding `C=C(C)[C@@H]1CCC(C)=C[C@H]1c1c(O)cc(CCCCC)cc1O` [CBD, cannabidiol], in the data set with hCMEC/D3 cells [1] (30 μM CBD, 2 h), the “effect on cell viability (ATP)” value is “significantly decreased”. Also, the “increase of closing tube number vs control group” value in the data set with hCMEC/D3 cells [2] (7 h) is 41% and 42.0±14.0%; in the data set with hCMEC/D3 cells [2] (24 h) it was 73% and 73.0±15.3%. Moreover, the “increase of [Ca2+]i area under the curve (AUC) vs control” value at TRPV2 (30 μM CBD, 20 min incubation) is reported as 1.5 fold. Besides, at TRPV2 (20 min incubation), the “lowest concentration with significant increase of [Ca2+]i AUC” value came out at 0.3 µM. Moreover, the “CBD-induced proliferation level (MTT, CTL=100%)” value in the data set on hCMEC/D3 cells [3] (24 h, siNEG cells) was found to be 125.9±4.0%; in the data set with hCMEC/D3 cells [3] (24 h, siTRPV2 cells), 113.0±2.1%. The “increase of MTT absorbance vs control group” value in the data set with hCMEC/D3 cells [3] (10 μM CBD, 24 h) turned out to be 22.0±1.2%. Also, the “lowest concentration with significantly increased MTT absorbance” value in the data set on hCMEC/D3 cells [3] (24 h) was found to be 0.3 µM. Further, the concentration giving a half-maximal response (EC50) with hCMEC/D3 cells [3] (Homo sapiens, hCMEC/D3, 24 h, read-out: EC50 of CBD effect on MTT absorbance (cell viability)) was ~0.3 µM. Moreover, the cytotoxicity at 24 h, 15 μM in data set [4] (hCMEC/D3 cells silenced for TRPV2 (TRPV2 siRNA)) was found to be 6%; in data set [4] (hCMEC/D3 cells treated with negative (NEG) siRNA), 27%; in data set [4] (hCMEC/D3 cells), 37%. Further, in data set [4] (hCMEC/D3 cells), the cytotoxicity at 48 h, 15 μM turned out to be 77%. The cytotoxicity at 72 h, 15 μM in data set [4] (hCMEC/D3 cells) is 78%. In the data set with hCMEC/D3 cells [5] (3 μM CBD), the “increase of the number of viable cells” value is reported as 1.2 fold. Also, the “effect on cell migration vs control group” value in the data set on hCMEC/D3 cells [6] (4 h post wound) is “significant pro-migration effect”; with hCMEC/D3 cells [6] (8 h post wound, p<0.05), “significant increase”.

`COc1ccc(/C=C/C(=O)Nc2ccccc2C(=O)O)cc1OC` [TNL, tranilast]: the “effect on CBD-induced decrease in cell viability (ATP)” value in the data set on hCMEC/D3 cells [1] (50 μM TNL, 15 μM CBD, 48 h) is “partly reversed”; in the data set on hCMEC/D3 cells [1] (100 μM TNL, 30 μM CBD, 2 h), “reversed”. In addition, the “effect on CBD-induced tube formation” value is “inhibited” in the data set on hCMEC/D3 cells [2] (50 μM TNL co-treatment with 3 μM CBD, 7 h) and “totally reversed” in the data set with hCMEC/D3 cells [2] (50 μM TNL with 3 μM CBD, 24 h). Besides, the “effect on CBD-mediated lasting elevation of [Ca2+]i” value on TRPV2 (100 μM TNL, 15 μM CBD) is on record as “fully abolished”. Besides, on TRPV2 (TNL 50 or 100 μM), the “effect on heat-induced [Ca2+]i signals” value is recorded as “significantly decreased”. Besides, the “effect on CBD-induced increase of viable cells” value with hCMEC/D3 cells [5] (50 μM TNL with 3 μM CBD) is listed as “totally inhibited”. For the same molecule, in the data set on hPBMEC monolayers, the “effect on CBD-induced TEER increase” value is “totally inhibited”. Moreover, the “effect on pro-migration effect of CBD” value with hCMEC/D3 cells [6] (50 μM TNL co-treatment with 3 μM CBD, 8 h) is given as “totally inhibited”.

As for `CC(C)C[C@H](NC(=O)c1cc2ccccc2s1)C(=O)N1CCN(C(=O)[C@H](CO)NS(=O)(=O)c2ccc(Cl)cc2Cl)CC1` [GSK1016790A], the “effect on cell viability (MTT)” value in the data set with hCMEC/D3 cells [3] (GSK1016790A 1 μM, 24, 48 or 72 h) is on record as “did not alter cell viability”.

The IC50 is the concentration at which inhibition is half-maximal. Regarding `N.N.N.N.N.N.N.N.N.N.N.N.N.N.[Cl-].[Cl-].[Cl-].[Cl-].[Cl-].[Cl-].[O-2].[O-2].[Ru+3].[Ru+3].[Ru+4]` [RR, ruthenium red], at TRPV2 (10 μM RR pretreatment, 15 μM CBD), the “effect on CBD-induced elevation of [Ca2+]i” value is reported as “fully abolished”. For the same molecule, the IC50 on TRPV2 (15 μM CBD, antagonist pre-treatment 5 min, read-out: IC50 of inhibition of CBD-mediated elevation of [Ca2+]i) came to 7.7 ± 1.7 µM. Also, on TRPV2 (RR), the “effect on heat-induced [Ca2+]i signals” value is on record as “significantly decreased”.
